“Also recorded” adds a separate entry of the source. Where no end group is shown, it is not given here. A value given as a limit tells only on which side of the number the result lay.

These results are taken from patent US11517540B2, “Restoring physiology in iron-deficient organisms using small molecules” (The Board of Trustees of the University of Illinois, priority 2015, dated 2022).

One data set deals with hino-rescued yeast. As to the kind of experiment: Sensitivity of hinokitiol-rescued yeast to chemical inhibitors. The following applies: ebselen: Pma1; bafilomycin: V-ATPase; caspofungin: off-pathway cell wall biosynthesis. It is filed as cell-based, S. cerevisiae.
The text on data set [1]: (§1) FIG. 5 illustrates the biophysical characterization of hinokitiol.
Data set [2] deals with DMT1-deficient Caco-2 epithelia monolayers. The data set is described as follows: 55Fe uptake and transepithelial transport in DMT1-deficient Caco-2 monolayers. The following applies: for 55Fe uptake into cells / transepithelial 55Fe transport: shDMT1 monolayers, apical addition. From the text: (§2) In normal epithelia, iron brought into the cell via apical DMT1 transporters is stored in cytosolic ferritin clusters and directionally exported through the basolateral membrane by FPN1. Transepithelial iron flux via this network of proteins is regulated by the iron response element which is sensitive to intracellular iron concentrations.

A further data set concerns FPN1. As to the kind of experiment: 55Fe uptake and transepithelial transport in control Caco-2 monolayers with FPN1 down-regulated by quercetin. It is filed as cell-based, human.
Text: as §2

A short description of data set [3]: Iron binding (UV trace after addition of iron). It is filed as physicochemical.
Text: as §1

Data set [4] relates to DMT1-deficient MEL cells. The data set is described as follows: Differentiation / hemoglobinization of DMT1-deficient MEL cells (o-dianisidine staining). As to conditions: for differentiation (staining of hemoglobinized cells with o-dianisidine): 2% DMSO induction. The source says: To gain a better fundamental understanding of this phenomenon, DS19 murine erythroleukemia (MEL) cells were used. These terminally differentiate toward developing erythrocytes after induction with 2% DMSO leading to increased iron uptake and globin expression. DMT1-deficient cell lines through shRNA knockdown were developed (FIG. 7, panel (B)).

In data set [5] the test system is Reticulocytes isolated ex vivo from DMT1-deficient Belgrade (b/b) rats. The data set is described as follows: 59Fe incorporation into heme in reticulocytes isolated ex vivo. The following applies: for 59Fe incorporation into heme: plasma spiked with 59Fe-transferrin, b/b reticulocytes. Here is the method: The capacity for hinokitiol to restore hemoglobinization in DMT1-deficient erythroid progenitors was evaluated. Reticulocytes isolated ex vivo from DMT1-deficient Belgrade (b/b) and healthy (+/b) rats were incubated in plasma spiked with ^59Fe-transferrin to assess hinokitiol's ability to promote iron utilization.
The use of these MEL cells allowed us to test the hypothesis that hinokitiol autonomously transports iron down pre-existing concentration gradients. To do this, we utilized live cell fluorescence imaging with iron-specific dyes to visualize intracellular iron distribution.

Data set [6] concerns DMT1-deficient Belgrade (b/b) rats. As to the kind of experiment: Chronic exposure of Belgrade (b/b) rats in rat chow: hematocrit. Format: in vivo. The following applies: for hematocrit after one month of treatment: 0.2% in rat chow (˜100 mg/kg/day). The source says:
(§3) Belgrade (b/b) rats (FIG. 3, panel (A)) are the leading model of the disease and display severe hematological defects such as decreased hematocrit values amongst other markers.

The nature of data set [7]: Release of iron from POPC liposomes.
Text: as §1

Data set [8] has as its system Mitoferrin-deficient MEL cell lines. The data set is described as follows: Hemoglobinization and 55Fe use in mitoferrin-deficient MEL cells. It is filed as cell-based, murine. As to conditions: for hemoglobinization: conditions identical to DMT1-deficient cells.
In data set [9] the test system is S. cerevisiae missing the iron transporting complex Fet3Ftr1 (fet3Δftr1Δ). The data set is described as follows: Modified functional complementation: growth rescue of iron transporter-deficient yeast. Format: cell-based. As to the method:
To identify small molecules which perform such transport, a modified functional complementation experiment was performed. […] Growth restoration is not due to generic hormetic effects (FIG. 4, panel (D)) and can be sustained >40 days with continued reliance on hinokitiol (FIG. 4, panel (E)).

The next data set relates to TMEM14CΔ. As to the kind of experiment: Hemoglobinization in heme biosynthesis-deficient (TMEM14CΔ) cells. It is filed as cell-based.
For data set [10] the following is noted: 0.2% of feed, 13 weeks orally; cited from earlier work.
The next data set can be described thus: Permeability assays. Format: in vitro ADME. As to conditions: not told. From the text: This was sustained for >2 months.
Another data set relates to J774 macrophages. Format: cell-based. Here is the method:
To test the capacity for hinokitiol to restore iron release in FPN1 deficiencies, J774 macrophages were utilized. J774 cells with ^55Fe-transferrin were incubated in the absence or presence of hepcidin. Hepcidin is a key iron regulator, down-regulating FPN1 by promoting its degradation.

Data set [11] in a line: Toxicity and pharmacokinetic half-life in healthy rats.
Text: as §3

The test system of data set [12] is DMT1-deficient MEL cells. The data set is described as follows: Live cell fluorescence imaging of intracellular iron distribution with iron-specific dyes. It is filed as cell-based, murine.
[13] abbreviates: control monolayers treated with quercetin.

With `CC[C@H](C)C[C@H](C)CCCCCCCCC(=O)N[C@H]1C[C@@H](O)[C@@H](NCCN)NC(=O)[C@@H]2[C@@H](O)CCN2C(=O)[C@H]([C@H](O)CCN)NC(=O)[C@H]([C@H](O)[C@@H](O)c2ccc(O)cc2)NC(=O)[C@@H]2C[C@@H](O)CN2C(=O)[C@H]([C@@H](C)O)NC1=O` [caspofungin], the “sensitivity of hino-rescued yeast to chemical inhibition” value in the data set with hino-rescued yeast is recorded as “equi-sensitive”.

On to `CC(C)c1cccc([O-])c(=O)c1.CC(C)c1cccc([O-])c(=O)c1.CC(C)c1cccc([O-])c(=O)c1.[Fe+3]` [tris(hinacolato) iron (III)], for which, in data set [1], the “partitioning of iron complex into octanol” value is on record as “predominantly partitions into octanol” and the “solubility in hexanes / partitioning into water” value is “soluble in hexanes”.

As for `CO/C1=C\C(C)=C\[C@@H](C)[C@@H](O)[C@@H](C)C/C(C)=C/C=C/[C@H](OC)[C@@H]([C@@H](C)[C@@H](O)[C@H](C)[C@@]2(O)C[C@@H](O)[C@H](C)[C@@H](C(C)C)O2)OC1=O` [bafilomycin], the “sensitivity of hino-rescued yeast to chemical inhibition” value in the data set with hino-rescued yeast is on record as “exceptionally sensitive”.

In the case of `Cc1ncc(CO)c(C=NNC(=O)c2ccncc2)c1O` [pyridoxal isonicotinoyl hydrazone, reference compound], in [2] (hinokitiol 500 nM), the “55Fe uptake into cells” value is on record as “unable to promote uptake or transport” and the “transepithelial 55Fe transport” value is reported as “unable to promote uptake or transport”.

Turning to `Cc1c(O)c(=O)ccn1C` [deferiprone, reference compound], the “solubility in hexanes / partitioning into water” value in data set [1] is on record as “partition primarily into water”. Further, in [2] (hinokitiol 500 nM), the “55Fe uptake into cells” value is reported as “unable to promote uptake or transport” and the “transepithelial 55Fe transport” value is “unable to promote uptake or transport”.

`O=c1c(O)c(-c2ccc(O)c(O)c2)oc2cc(O)cc(O)c12` [quercetin]: in the data set with FPN1 (setting [13]), the “transepithelial transport after FPN1 down-regulation” value was “decreased transepithelial transport” and the “uptake after FPN1 down-regulation” value is given as “without affecting uptake”.

Turning to `CC(C)c1cccc(=O)cc1` [C2deOHino, C2-deoxy hinokitiol], the iron binding result in [3] is “ablated iron binding and transport; also recorded: does not bind or transport iron; also recorded: does not”. The “differentiation (staining of hemoglobinized cells with o-dianisidine)” value with DMT1-deficient MEL cells [4] (shDMT1 MEL cells, 72 hours) is listed as “unable to restore physiology in any case”. For the same molecule, in data set [5], the “59Fe incorporation into heme” value is listed as “no apparent effect”. Also, the “hematocrit after one month of treatment” value in [6] is reported as “low hematocrits normally observed for untreated b/b rats”. For the same molecule, in [2] (hinokitiol 500 nM), the “55Fe uptake into cells” value was “unable to promote uptake or transport” and the “transepithelial 55Fe transport” value is “unable to promote uptake or transport”. Moreover, the “iron transport (release of iron from POPC liposomes)” value in data set [7] was “ablated iron binding and transport; also recorded: does not bind or transport iron; also recorded: do not”. In data set [8], the “55Fe incorporation into heme” value is recorded as “did not produce these effects”, the 55Fe uptake result is given as “did not produce these effects” and the hemoglobinization entry was “did not produce these effects”.

`CC(C)c1cccc(=O)c(O)c1` [hinokitiol, 2-hydroxy-6-propan-2-ylcyclohepta-2,4,6-trien-1-one]: in [9] (continued reliance on hinokitiol), the “time over which growth restoration can be sustained” value was above 40 days. For the same molecule, the “restoration of cell growth” value in [9] (fet3Δftr1Δ yeast) is on record as “restored cell growth”. The “growth level relative to wild type” value in data set [9] (hinokitiol-treated fet3Δftr1Δ yeast, liquid media) was “grow to wild type levels”. The “influx of 55Fe into cells” value in data set [9] (yeast) is given as “restoration of influx of ^55Fe into cells”. In addition, in the data set with TMEM14CΔ, the hemoglobinization result is given as “did not restore hemoglobinization”. For the same molecule, the lethality entry in data set [10] is reported as “non-lethal”. The “oral bioavailability in vivo suggested by permeability assays” value in the data set “Permeability assays” was “good oral bioavailability”. For the same molecule, in [3], the iron binding entry is “confirmed; also recorded: binds iron”. For the same molecule, in the data set on FPN1 (quercetin-treated monolayers plus hinokitiol), the “restoration of transepithelial transport in FPN1 down-regulated monolayers” value is given as “unable to restore transepithelial transport”. In addition, in the data set on DMT1-deficient MEL cells [4] (no DMSO induction), the “differentiation without DMSO induction” value was “unable to promote differentiation without DMSO induction”. In the data set with DMT1-deficient MEL cells [4] (shDMT1 MEL cells, 72 hours), the “differentiation (staining of hemoglobinized cells with o-dianisidine)” value was “restored differentiation” and the toxicity entry is given as “without toxicity”. For the same molecule, in data set [5] (at concentrations increasing heme incorporation), the hemolysis result is “did not cause hemolysis”. In data set [5], the “59Fe incorporation into heme” value was “increased ^59Fe incorporation into heme in a dose-dependent fashion; also recorded: restored incorporation of ^59Fe into heme”. Moreover, the “time over which hematocrit restoration was sustained” value in [6] (0.2% in rat chow) is above 2 months. In data set [6] (100 mg/kg/day), the “hematocrit after one month of treatment” value was “restored hematocrit to b/b rats to levels that are no longer considered anemic; also recorded: restores hematocrit to non-anemic values”. The “hematocrit after four weeks of treatment” value in data set [6] (0.2% of feed, ˜125 mg/kg each day) was “significant increases in hematocrit”. Further, in data set [2], the “DMT1 expression after hinokitiol” value is listed as “independent of DMT1 expression; also recorded: does not induce expression of DMT1”. Also, in data set [2] (DMT1-deficient monolayers), the “55Fe uptake as function of hinokitiol dosage” value was “proportional to the hinokitiol dosage” and the “transepithelial 55Fe transport at high hinokitiol concentrations” value is recorded as “reduced when a high intracellular iron concentration is reached”. For the same molecule, in [2] (basolateral addition of 55Fe and hinokitiol), the “basolateral to apical iron transport” value is “failed to promote transport of iron from the basolateral to the apical side”. Besides, in [2] (hinokitiol 500 nM), the monolayer integrity result is “without disrupting monolayer integrity”, the “55Fe uptake into cells” value is on record as “restored” and the “transepithelial 55Fe transport” value was “restored”. Also, in data set [2] (immunoprecipitation of ferritin after apical 55Fe, DMT1-deficient monolayers), the “55Fe incorporation into ferritin” value is “restored high incorporation of ^55Fe into ferritin”. In addition, in data set [2] (pHs observed throughout the duodenum), the “uptake and transport at range of pH” value was “maintained at a range of pHs observed throughout the duodenum”. Further, in data set [7], the “iron transport (release of iron from POPC liposomes)” value was “confirmed; also recorded: promotes the release of iron from POPC liposomes”. Further, in [8], the “55Fe incorporation into heme” value was “increases in ^55Fe uptake and incorporation into heme”; the 55Fe uptake result was “increases in ^55Fe uptake and incorporation into heme”; the hemoglobinization entry is “restored hemoglobinization”. Moreover, the toxicity result in the data set with J774 macrophages is given as “without observable toxicity”. Further, in the data set with J774 macrophages (J774 cells with 55Fe-transferrin, FPN1 down-regulated with hepcidin), the “release of intracellular iron” value is on record as “released this intracellular iron back to normal levels in dose-dependent fashion”. Moreover, in data set [11] (IP injection in F344 rats), the pharmacokinetic half life result was “reasonable pharmacokinetic half life”. The “toxicity in healthy rats” value in [11] (rat, in vivo) is listed as “relatively non-toxic”. In the data set with DMT1-deficient MEL cells [12], the “cytosolic iron levels (calcein green)” value is “increased cytosolic and mitochondrial levels”; the “endosomal iron levels (oxyburst green)” value is “decreased endosomal iron levels”; the “mitochondrial iron levels (RPA)” value is “increased cytosolic and mitochondrial levels”.

On to “hepcidin: key iron regulator, down-regulating FPN1 by promoting its degradation (DTHFPICIFCCGCCHRSKCGMCCKT; ends and bridges not checked; cysteine pairing not given here; UniProt P81172 60-84, looked up) [reference compound]”, for which the “iron release after FPN1 down-regulation” value with J774 macrophages (J774 cells with 55Fe-transferrin, presence of hepcidin) is reported as “reduced iron release”.
